Patent US10227348B2, “Use of 10H-benzo[g]pteridine-2,4-dione derivatives” (TriOptoTec GmbH, priority 2011, dated 2019)

Tests used:
[1] = system: Staphylococcus aureus (ATCC number: 25923); assay: Phototoxicity test (photodynamic inactivation, CFU/ml by Miles and Misra); assay type: cell-based; settings: S. aureus; irradiation at 10.5 J/cm^2 (50 mW/cm^2, 210 sec, 390-500 nm); incubation 10 min or 30 min; CFU/ml after 24 h
Experimental: (§1) A sample of the bacterial strain Staphylococcus aureus (ATCC number: 25923) or Escherichia coli (ATCC number: 25922) was taken from a cryogenically frozen culture, isolated on Müller-Hinton agar plates and cultivated under aerobic conditions at 37° C. in an overnight culture. Thereafter, 5 ml of Müller-Hinton liquid medium were inoculated with a smear of the bacterial culture (single colony) and incubated at 37° C. overnight. The bacterial suspension thus obtained was centrifuged at 2500 rpm for 10 min and the bacterial pellet obtained was resuspended in 5 ml of sterile PBS. The optical density of the bacterial suspensions for the phototoxicity tests was OD600nm=0.6, which corresponds to a bacteria count of ˜[…] bacteria per ml. The biochemical analysis and resistance determination of the bacteria were conducted with the VITEK2 system according to the M100-S14 guidelines from the NCCLS (2004).
(§2) 200 μl of a bacterial suspension (bacterial density: 10^8-10^12/ml) were incubated with 200 μl of each of various concentrations of the photosensitizers to be tested at room temperature for 10 min or 30 min. Thereafter, the bacteria were washed twice with distilled water and resuspended in 200 μl of distilled water, and the entire volume was transferred to a 96-well microtiter plate and then irradiated. The photosensitizers used were dissolved in distilled water and various dilution series were prepared (0 μM, 1 μM, 10 μM, 100 μM).
(§3) For sensitization, the Omnicure Series 2000 lamp (Photonics Solutions Inc., Edinburgh, UK) was used, which emits light from a range from 390 nm to 500 nm and has emission maxima Emax at 405 nm and 436 nm. The power applied in each case was 50 mW/cm^2.
(§4) Irradiated and unirradiated samples were used as controls. Likewise run were bacterial suspensions incubated only with photosensitizer (dark control).
(§5) The determination of the colony-forming units (CFU) per ml was conducted by the method published by Miles and Misra (Miles, A A; Misra, S S, Irwin, J O (1938 November). “The estimation of the bactericidal power of the blood.”. The Journal of hygiene 38 (6): 732-49). For this purpose, serial dilutions from 10^−2 to 10^−9 of the corresponding bacterial suspension were prepared. 3×20 μl of each of the corresponding bacterial dilutions were then dripped onto Müller-Hinton plates and incubated at 37° C. for 24 h. Thereafter, the number of surviving colony-forming units (CFU) was determined. Each of the experiments was repeated three times.
(§6) The effectiveness of phototoxicity with respect to bacteria after irradiation was defined according to the following guidelines for hand hygiene in the health sector (Boyce, J. M., and D. Pittet. 2002. Guideline for Hand Hygiene in Health-Care Settings: recommendations of the Healthcare Infection Control Practices Advisory Committee and the HICPAC/SHEA/APIC/IDSA Hand Hygiene Task Force. Infect Control Hosp Epidemiol 23: p. 3-40): • reduction in the CFU/ml by 1 log10 stage≙90% effectiveness • reduction in the CFU/ml by 3 log10 stages≙99.9% effectiveness • reduction in the CFU/ml by 5 log10 stages≙99.999% effectiveness
(§7) For effective inactivation, the decrease of ≥3 log10 stages can therefore be adopted, and S. aureus and E. coli were chosen as examples of representatives from the group of the Gram-positive and Gram-negative bacteria (see Boyce J. M and D. Pittet 2009).

[2] = system: Escherichia coli (ATCC number: 25922); assay: as above; assay type: cell-based; settings: E. coli; irradiation at 10.5 J/cm^2 (50 mW/cm^2, 210 sec, 390-500 nm); incubation 10 min or 30 min; CFU/ml after 24 h
Experimental: as §1, §2, §3, §4, §5, §6, §7

Structure (SMILES) | Required concentration to achieve a reduction by ≥3 log10 stages (decrease by 99.9%) [1] [μM] | Required concentration to achieve a reduction by ≥3 log10 stages (decrease by 99.9%) [2]
Cc1cc2nc3c(=O)[nH]c(=O)nc-3n(CCN)c2cc1C [FL-01] | 10 | 10 μM
COCCn1c2nc(=O)n(CCN)c(=O)c-2nc2cc(C)c(C)cc21 [FL-03] | 10 | >100^(*^) μM
COCCn1c2nc(=O)n(CCNC(=N)N)c(=O)c-2nc2cc(C)c(C)cc21 [FL-04] | 50 | >100^(*^) μM
Cc1cc2nc3c(=O)[nH]c(=O)nc-3n(CCOCCOCCN)c2cc1C [FL-05] | 100 | >100^(*^) μM
